Test results: US8674063B2, “Chimerical peptidic molecules with antiviral properties against the viruses of the Flaviviridae family” (Centro de Ingenieria Genetica y Biotecnologia, priority 2006, dated 2014)

How the values were obtained:
Type in all cases: cell-based
[1] = Cytotoxic effect (CTE) of peptides on Vero cell monolayer; details: Vero cell monolayer; Vero cells; read-out: CTE: peptide concentration causing damage to 50% of the monolayer
[2] = test system: dengue 2 virus (DV2, strain S16803); experiment: Plaque reduction neutralization assay (PRNT) in Vero cells, dengue 2 virus; details: for antiviral activity (inhibition of infection by DV2, plaque reduction), in words: Vero cells
Protocol: Vero cells were grown in 24-well plates to approximately 90% confluence, and washed twice with MEM medium without FCS. Peptide dilutions were added according to the particular assay and incubated typically during 1 h at 37° C. After the incubation, the virus was added at a multiplicity of infection of 0.1, followed by a subsequent incubation for 1 hour at 37 C. In certain experiments the peptides were added simultaneously with the virus (without preincubation) or the peptide preincubation time was modified. At the end of the second incubation, the unbound virus was eliminated by washing, and the cells were incubated for 5 days at 37 C in high density medium (MEM supplemented with non essential amino acids, 1% FCS, 1% carboxymethylcellulose) in order to propitiate the appearance of lytic plaques. The plaques were visualized by staining with 0.1% Naphtol Blue Black in 0.15 Mol/L sodium acetate. Two replicates were used per experimental point in each assay, and three independent determinations were performed. The inhibition percentage was calculated according to the expression: […]
In order to determine the role of the cell penetrating peptide and the ER retention signal on the antiviral activity of peptides of the present invention we tested peptides No 1, 2, 3 and 4 of table 1 for inhibition of the viral infection by VD2 in Vero cells, using the assay described in the example 2.

Vero cells = experiment: Cytotoxic effect (CTE) of peptides on Vero cell monolayer; details: at the assayed conditions

Row | Compound | CC50 [1] | antiviral activity (inhibition of infection by DV2, plaque reduction), in words [2] | also measured
1 | CC[C@H](C)[C@H](NC(=O)[C@H](CO)NC(=O)[C@H](CC(C)C)NC(=O)[C@@H](NC(=O)[C@@H]1CCCN1C(=O)[C@H](CO)NC(=O)[C@H](CO)NC(=O)CNC(=O)CNC(=O)CNC(=O)[C@H](CCC(N)=O)NC(=O)[C@@H]1CCCN1C(=O)[C@@H]1CCCN1C(=O)[C@H](CCCNC(=N)N)NC(=O)[C@H](CCCNC(=N)N)NC(=O)[C@H](CCCNC(=N)N)NC(=O)[C@H](CCC(N)=O)NC(=O)[C@H](CCCNC(=N)N)NC(=O)[C@H](CCCNC(=N)N)NC(=O)[C@H](CCCCN)NC(=O)[C@H](CCCCN)NC(=O)[C@H](CCCNC(=N)N)NC(=O)CNC(=O)[C@@H](N)Cc1ccc(O)cc1)[C@@H](C)CC)C(=O)N[C@H](C(=O)N[C@H](C(=O)N[C@@H](CO)C(=O)N[C@@H](CCC(=O)O)C(=O)N[C@@H](CC(=O)O)C(=O)NCC(N)=O)[C@@H](C)CC)[C@@H](C)O [NS2Bden2+TAT] | 150 µM |  | 
2 | segment [I] of peptide NS2Bden2+TAT (SSPILSITISEDG), lacks the cell penetrating segment |  | does not inhibit | antiviral activity (inhibition of infection by DV2, plaque reduction), in words ([2]; listed as NS3pro protease activation inhibitor segment [I]): does not show antiviral activity in vitro
3 | CC[C@H](C)[C@H](NC(=O)[C@H](CO)NC(=O)[C@H](CC(C)C)NC(=O)[C@@H](NC(=O)[C@@H]1CCCN1C(=O)[C@H](CO)NC(=O)[C@H](CO)NC(=O)CNC(=O)CNC(=O)CNC(=O)[C@H](CCCNC(=N)N)NC(=O)[C@H](CCCNC(=N)N)NC(=O)[C@H](CCCNC(=N)N)NC(=O)[C@H](CCCNC(=N)N)NC(=O)[C@H](CCCNC(=N)N)NC(=O)[C@H](CCCNC(=N)N)NC(=O)[C@H](CCCNC(=N)N)NC(=O)[C@H](CCCNC(=N)N)NC(=O)[C@H](CCCNC(=N)N)NC(=O)[C@@H](N)CCCNC(=N)N)[C@@H](C)CC)C(=O)N[C@H](C(=O)N[C@H](C(=O)N[C@@H](CO)C(=O)N[C@@H](CCC(=O)O)C(=O)N[C@@H](CC(=O)O)C(=O)NCC(N)=O)[C@@H](C)CC)[C@@H](C)O [NS2Bden2-pRR] | > 50 µM |  | 
4 | CC[C@H](C)[C@H](NC(=O)[C@H](CO)NC(=O)[C@H](CC(C)C)NC(=O)[C@@H](NC(=O)[C@@H]1CCCN1C(=O)[C@H](CO)NC(=O)[C@H](CO)NC(=O)CNC(=O)CNC(=O)CNC(=O)[C@H](CCC(N)=O)NC(=O)[C@@H]1CCCN1C(=O)[C@@H]1CCCN1C(=O)[C@H](CCCNC(=N)N)NC(=O)[C@H](CCCNC(=N)N)NC(=O)[C@H](CCCNC(=N)N)NC(=O)[C@H](CCC(N)=O)NC(=O)[C@H](CCCNC(=N)N)NC(=O)[C@H](CCCNC(=N)N)NC(=O)[C@H](CCCCN)NC(=O)[C@H](CCCCN)NC(=O)[C@H](CCCNC(=N)N)NC(=O)CNC(=O)[C@@H](N)Cc1ccc(O)cc1)[C@@H](C)CC)C(=O)N[C@H](C(=O)N[C@H](C(=O)N[C@@H](CO)C(=O)N[C@@H](CCC(=O)O)C(=O)N[C@@H](CC(=O)O)C(=O)NCC(=O)NCC(=O)NCC(=O)N[C@@H](CCCCN)C(=O)N[C@@H](CC(=O)O)C(=O)N[C@@H](CCC(=O)O)C(=O)N[C@@H](CC(C)C)C(=O)O)[C@@H](C)CC)[C@@H](C)O [NS2Bden2 + TAT + KDEL] | > 150 µM |  | 
5 | CC[C@H](C)[C@H](NC(=O)[C@H](CCCCN)NC(=O)[C@@H](NC(=O)[C@H](CCC(N)=O)NC(=O)[C@@H](N)CCCNC(=N)N)[C@@H](C)CC)C(=O)N[C@@H](Cc1c[nH]c2ccccc12)C(=O)N[C@@H](Cc1ccccc1)C(=O)N[C@@H](CCC(N)=O)C(=O)N[C@@H](CC(N)=O)C(=O)N[C@@H](CCCNC(=N)N)C(=O)N[C@@H](CCCNC(=N)N)C(=O)N[C@@H](CCSC)C(=O)N[C@@H](CCCCN)C(=O)N[C@@H](Cc1c[nH]c2ccccc12)C(=O)N[C@@H](CCCCN)C(=O)N[C@@H](CCCCN)C(=O)NCC(=O)NCC(=O)NCC(=O)N[C@@H](CO)C(=O)N[C@@H](CO)C(=O)N1CCC[C@H]1C(=O)N[C@H](C(=O)N[C@@H](CC(C)C)C(=O)N[C@@H](CO)C(=O)N[C@H](C(=O)N[C@H](C(=O)N[C@H](C(=O)N[C@@H](CO)C(=O)N[C@@H](CCC(=O)O)C(=O)N[C@@H](CC(=O)O)C(=O)NCC(N)=O)[C@@H](C)CC)[C@@H](C)O)[C@@H](C)CC)[C@@H](C)CC [NS2Bden2-pP2] | 50 µM |  | toxicity on the cells, in words (Vero cells): significant cytotoxicity
6 | TAT peptide: YGRKKRRQRRRPPQ; SEQ ID NO 64; cell penetrating TAT peptide, negative control (Description of the Artificial Sequence chimerical peptide) [reference compound] |  | did not show antiviral activity | number of plaques in presence of peptide ([2]; DV2, Vero cells, FIG. 2B): increase in the number of plaques
